The subject of one assay is Tet3 mRNA. Briefly: Tet3 mRNA in the ARC of mice. In kind it is in vivo, mouse. Conditions: 2.5 mg/kg i.p., two days. As for the experimental part:
To test whether Bobcat339 affects TET3 protein expression in AgRP neurons, Agrp-IRES-Cre::LSL-Cas9-GFP mice with GFP expression specifically in AgRP neurons were intraperitoneally injected with vehicle or Bobcat339 at 2.5 mg/kg, followed by isolation of ARCs under fed conditions (9:00-11:00) two days later. This dose was chosen based on the dose response studies. TET2 expression was widespread but was negligible in AgRP neurons.
Bobcat339 powder (Sigma-Aldrich, SML2611) was freshly dissolved in DMSO (vehicle) at a concentration of 50 mg/mL and filtered through a 0.22 micron. It was further diluted with 1×PBS to a final concentration of 0.5 mg/mL before injections. Mice were injected intraperitoneally with Bobcat339 at 1 mg/kg, 2.5 mg/kg, or 4 mg/kg.
Total RNAs were extracted from neuronal cells or homogenized hypothalamic arcuate nucleus tissue samples using PureLink RNA Mini Kit (Ambion, 12183025). cDNA was synthesized using PrimeScript RT Reagent Kit in a 20 μl reaction containing 0.5-1 μg of total RNA. Real-time quantitative PCR was performed in a 15 μl reaction containing 0.5-1 μl of cDNA using SsoAdvanced Universal SYBR Green Supermix in a Bio-Rad iCycler. Specificity was verified by melting curve analysis. The Ct values of each sample were used in the post-PCR data analysis. Gene expression levels were normalized against RPLP0.

For another assay, the system named is TET3. Description: TET3 protein level (immunoblot/immunofluorescence) in GT1-7 cells. In kind it is cell-based, mouse. To be noted: 10 μM. Here is the method:
Mouse GT1-7 hypothalamic neuronal cell line (Sigma-Aldrich, SCC116), human SH-SY5Y neuronal blastoma cell line (ATCC, CRL-2266), and embryonic mouse hypothalamus cell line N11 (mHypoE-N11) (Cedarlane, CLU107) were purchased and cultured according to the manufacturers' instructions. For siRNA transfection in a 24-well plate scale, cells were seeded at a density of 2×10^5 cells/well the day before transfection. To prepare siRNA transfection solution for each well of cells, 5 pmol of NT siRNA (non-targeting control siRNA, AM4636, Ambion), Tet3 siRNA (siRNA specifically targeting mouse Tet3, 4390815/s101483, Ambion), or TET3 siRNA (siRNA specifically targeting human TET3, 4392420/s47238, Ambion) (Cao et al., 2019, Oncogene, 38:5356-5366; Xu et al., 2020, Cell Rep., 30:1310-1318) were mixed with 25 μl of OPTI-MEM (Gibco, 31985-070) by gentle pipetting (Cao, T. et al., 2019, Oncogene, 38:5356-5366; Xu, Y. et al., 2020, Cell Reports, 30:1310-1318 e5). In parallel, 1.5 μl of Lipofectamine RNAiMAX (Invitrogen, 13778-150) was mixed with 25 μl of OPTI-MEM by gentle pipetting. […]
For Bobcat339 treatment (FIG. 15A and FIG. 15B), GT1-7 cells grown in 24-well plates at 2×10^5 cells/well were incubated with vehicle or Bobcat339 at a final concentration of 10 μM for 6 h, followed by RNA and protein extractions. […] Protein and RNA were isolated 48 h later and analyzed. […]

Entries after “also recorded” stand apart in the source; their conditions may differ.

Take `Nc1nc(=O)n(-c2cccc(-c3ccccc3)c2)cc1Cl` [Bobcat339, 4-Amino-1-[1,1′-biphenyl]-3-yl-5-chloro-2(1H)-pyrimidinone]: the “Tet3 mRNA in the ARC” value in the assay on Tet3 mRNA was “did not alter the mRNA abundance of Tet3; also recorded: no significant change”. For the same compound, the TET3 protein level entry is on record as “a decrease in the protein level of TET3; also recorded: rapidly decreased the level of TET3 protein; also recorded: decreased TET3 expression at the protein level” in the assay with TET3 (6 h) and “decreased the level of TET3 protein” in the assay on TET3 (48 h, without exogenous TET3).

(Values after US20260355199A1, “COMPOSITIONS AND METHODS FOR TREATING OR PREVENTING NONALCOHOLIC STEATOHEPATITIS (NASH), ANOREXIA, DEPRESSION, ENDOMETRIOSIS, AND OTHER DISEASES OR DISORDERS” (priority 2022, published 2026).)
